Where a name gives a salt, the structure may show the parent alone.
Assays:
[1] = test system: abnormal prion proteins (kuru plaques) in brain sections of GSS patients; parameters: species or system human; settings: GSS patient brain sections, 10-200 μM in 50% ethanol, 30 minutes
[2] = test system: ScN2a cells; settings: for Concentration of inhibiting cell proliferation TC: mouse
[3] = test system: abnormal prion proteins in ScN2a cells with persistent infection of scrapie; test: cells; format: cell-based, mouse; settings: for IC50: Mus musculus, ScN2a, 96 h, read-out: Inhibitory effects on producing abnormal prion protein IC50; for Inhibitory effects on producing abnormal prion proteins (in words): ScN2a cells
[4] = in vivo; settings: male, Crj:CD1, mouse, iv
[5] = Slc:ICR, mouse, not told, iv

| Structure (SMILES) | Detection of spotted depositions of abnormal prion proteins (fluorescent signals) [1] | Concentration of inhibiting cell proliferation TC [2] | IC50 [3] | MTD [4] | Permeability into the brain: content in Brain [5] | Permeability into the brain: content in Plasma [5] | TC and safety concentration margin (in words) [2] | Inhibitory effects on producing abnormal prion proteins (in words) [3] |
| --- | --- | --- | --- | --- | --- | --- | --- | --- |
| Clc1ccccc1/C=C/c1nc2ccccc2s1 [Compound N-454, 2-[2-(2-chlorophenyl)ethenyl]benzothiazole] | spotted fluorescent signals were observed | 100 µM | 10 nM |  |  |  |  |  |
| CNc1ccc(/C=C/C=C/c2nc3ccccc3o2)cc1 [BF-185, 2-[[4-(4-methylamino)-phenyl]-1,3-butadienyl]-benzoxazole] |  |  |  | ≥ 10 mg/kg | 3.9 % ID/g or ml | 1.0 % ID/g or ml |  |  |
| Fc1ccc(/C=C/c2nc3ccccc3o2)cc1 [BF-208, 2-[2-(4-fluorophenyl)ethenyl]benzoxazole] |  | >10 µM | 0.8 nM | ≥ 10 mg/kg | 11.0 % ID/g or ml | 0.53 % ID/g or ml |  |  |
| CN(C)c1ccc2cc(-c3nc4cc(F)ccc4o3)ccc2c1 [BF-151, 5-fluoro-2-(6-dimethyl-aminonaphthalen-2-yl)benzoxazole] | spotted fluorescent signals were observed | 100 µM | 10 nM |  |  |  |  |  |
| Cc1nc(/C=C/c2cnc(N(C)C)s2)oc1C [BF-214, 2-(dimethylamino)-5-[2-(4,5-dimethyloxazol-2-yl)ethenyl]thiazole] |  |  |  | ≥ 10 mg/kg | 9.0 % ID/g or ml | 2.1 % ID/g or ml |  |  |
| CN(C)c1ccc(/C=C/c2ccc3ccccc3n2)c(O)c1 [BF-193, 2-[2-(2-hydroxy-4-dimethylaminophenyl)ethenyl]quinoline] |  | 10 µM | 1.6 nM | ≥ 10 mg/kg | 5.2 % ID/g or ml | 2.7 % ID/g or ml |  |  |
| CN(C)c1ccc(/C=C/c2nc3cc(F)ccc3s2)cc1 [BF-162, 2-(4-dimethylamino) styryl-5-fluorobenzo-thiazole] | spotted fluorescent signals were observed | 100 µM | 10 nM |  |  |  |  |  |
| CNc1ccc(C=Cc2ccc3ccccc3n2)c(CF)c1 [BF-195, 2-[2-(2-fluoromethyl-4-methylaminophenyl)-ethenyl]quinoline] |  | 10 µM | 32 nM | ≥ 10 mg/kg | 4.8 % ID/g or ml | 1.2 % ID/g or ml |  |  |
| CNc1ccc(/C=C/c2ccc3ccccc3n2)cc1 [BF-178, 2-[2-(4-methylaminophenyl)ethenyl]quinoline] |  | 100 µM | 1000 nM | ≥ 10 mg/kg | 6.3 % ID/g or ml | 4.5 % ID/g or ml |  |  |
| CN(C)c1ncc(/C=C/c2nc3ccccc3o2)s1 [BF-197, 2-[2-(2-dimethyl-aminothiazol-5-yl)-ethenyl]benzoxazole] |  | 10 µM | 16 nM | ≥ 10 mg/kg | 15 % ID/g or ml | 1.9 % ID/g or ml |  |  |
| CN(C)c1ccc(/C=C/c2nc3ccccc3s2)c(O)c1 [BF-192, 2-[2-(2-hydroxy-4-dimethylaminophenyl)ethenyl]benzothiazole] |  | >10 µM | 1.6 nM | ≥ 10 mg/kg | 5.5 % ID/g or ml | 2.6 % ID/g or ml |  |  |
| CN(C)c1cnc(/C=C/c2nc3ccccc3o2)o1 [BF-215, 2-[2-(5-dimethylamino-oxazol-2-yl)-ethenyl]-benzoxazole] |  |  |  | ≥ 10 mg/kg | 8.8 % ID/g or ml | 2.5 % ID/g or ml |  |  |
| Clc1ccc(/C=C/c2nc3ccccc3[nH]2)cc1 [Compound N-457, 2-[2-(4-chlorophenyl)ethenyl]benzimidazole] |  | 100 µM | 1 nM | ≥ 10 mg/kg | 7.1 % ID/g or ml | 2.8 % ID/g or ml | higher TCs, therefore higher safety concentration margins | highly inhibitory effects |
| CNc1ccc(C=Cc2ccc3ccccc3n2)c(O)c1 [BF-198, 2-[2-(2-hydroxyl-4-methylaminophenyl)-ethenyl]quinoline] |  | 10 µM | 0.8 nM | ≥ 10 mg/kg | 9.9 % ID/g or ml | 4.7 % ID/g or ml |  |  |
| Nc1ccc(/C=C/c2nc3cc(F)ccc3o2)cc1 [BF-140, 2-(4-amino)styryl-5-fluorobenzoxazole] |  | 50 µM | 5 nM | ≥ 10 mg/kg | 5.5 % ID/g or ml | 1.1 % ID/g or ml |  |  |
| Fc1ccc(/C=C/c2nc3ccccc3s2)cc1 [Compound N-453, 2-[2-(4-fluorophenyl)ethenyl]benzothiazole] |  | 100 µM | 1 nM | ≥ 10 mg/kg | 5.0 % ID/g or ml | 1.4 % ID/g or ml | higher TCs, therefore higher safety concentration margins | highly inhibitory effects |
| CNc1ccc(/C=C/C=C/c2nc3ccccc3s2)cc1 [BF-187, 2-[[4-(4-methylamino)-phenyl]-1,3-butadienyl]-benzothiazole] |  | 10 µM | 10 nM | ≥ 10 mg/kg | 3.6 % ID/g or ml | 1.3 % ID/g or ml |  |  |
| CNc1ccc(-c2nc3ccc(O)cc3s2)cc1 [BF-172, 2-(4-methylamino)-phenyl-6-hydroxybenzo thiazole] |  | >10 µM | 1.6 nM | ≥ 10 mg/kg | 4.9 % ID/g or ml | 2.9 % ID/g or ml |  |  |
| CNc1ccc(C=Cc2ccc3cc(I)ccc3n2)c(O)c1 [BF-199, 2-[2-(2-hydroxyl-4-methylaminophenyl)-ethenyl]-6-iodoquinoline] |  | >10 µM | 0.8 nM | ≥ 10 mg/kg |  |  |  |  |
| c1ccc2cc(-c3cn4ccccc4n3)ccc2c1 [Compound N-437, 2-(2-naphthyl)imidazo-[1,2-a]pyridine hydrobromide] |  | 100 µM | 1 nM | ≥ 10 mg/kg |  |  |  |  |
| CNc1ccc(/C=C/c2nc3cc(I)ccc3o2)cc1 [BF-180, 2-(4-methylamino)-styryl-5-iodobenzoxazole] |  | 100 µM | 10 nM | ≥ 10 mg/kg | 2.4 % ID/g or ml | 1.2 % ID/g or ml |  |  |
| CNc1ccc(/C=C/C=C/c2nc3ccccc3[nH]2)cc1 [BF-188, 2-[[4-(4-methylamino)-phenyl]-1,3-butadienyl]-benzimidazole] |  |  |  | ≥ 10 mg/kg | 4.8 % ID/g or ml | 1.7 % ID/g or ml |  |  |
| CN(C)c1ncc(/C=C/c2ccc3ccccc3n2)s1 [BF-222, 2-[2-(2-dimethylthiazol-5-yl)ethenyl]quinoline] |  | >10 µM | 8 nM | ≥ 10 mg/kg | 13.0 % ID/g or ml | 2.0 % ID/g or ml |  |  |
| Nc1ccc(/C=C/c2nc3cc(I)ccc3o2)cc1 [BF-173, 2-(4-amino)styryl-5-iodobenzoxazole] |  | 100 µM | 100 nM | ≥ 10 mg/kg |  |  |  |  |
| Nc1ccc(-c2ccc3cc(CF)ccc3n2)c(O)c1 [BF-213, 2-[(4-amino-2-hydroxy)-phenyl]-6-(fluoro-methyl)quinoline] |  | 10 µM | 2 nM | ≥ 10 mg/kg |  |  |  |  |
| CN(C)c1ncc(/C=C/C=C/c2nc3ccccc3[nH]2)s1 [BF-231, 2-[4-(2-dimethylamino-thiazol-5-yl)-1,3-butadienyl]benzimidazole] |  | >10 µM | 1.6 nM | ≥ 10 mg/kg |  |  |  |  |
| CNc1ccc(/C=C/C=C/C=C/c2ccc3ccccc3n2)cc1 [BF-189, 1-(4-methylamino-phenyl)-6-(2-quinolyl)-1,3,5-hexatriene] |  | 100 µM | 100 nM | ≥ 10 mg/kg |  |  |  |  |
| Cc1nc(/C=C/c2ccc(N(C)C)cc2)oc1C [BF-137, 2-[2-(4-dimethylamino-phenyl)ethenyl]-4-5-dimethyloxazole] |  | 100 µM | 100 nM | ≥ 10 mg/kg | 6.5 % ID/g or ml | 2.9 % ID/g or ml |  |  |
| C(=C\c1nc2ccccc2[nH]1)/c1ccccc1 [Compound N-491, 2-styrylbenzimidazole] |  | 100 µM | 10 nM | ≥ 10 mg/kg | 7.4 % ID/g or ml | 2.3 % ID/g or ml |  |  |
| Nc1ccc(/C=C/c2ccc3ccccc3n2)cc1 [BF-177, 2-[2-(4-aminophenyl)ethenyl]quinoline] |  |  |  | ≥ 10 mg/kg | 8.2 % ID/g or ml | 1.6 % ID/g or ml |  |  |

Source: patent publication US20050260126A1 (priority 2002, published 2005)
